{"source": "paper PMC7226613", "about": "“Antikinetoplastid Activity of Indolocarbazoles from Streptomyces sanyensis” (Biomolecules, 2020)", "key": {"[1]": {"assay": "Cytotoxicity assay (AlamarBlue)", "settings": "mouse"}, "[2]": {"tested_on": "epimastigote of T. cruzi (Y strain)", "assay": "Trypanocidal capacity assay, epimastigotes (AlamarBlue)", "settings": "72 h; for IC50: Trypanosoma cruzi, read-out: T. cruzi IC50; for T. cruzi IC50: epimastigotes, mean ± SD"}, "[3]": {"tested_on": "macrophage J774A.1 cell line", "assay": "Cytotoxicity assay (AlamarBlue)", "settings": "24 h, AlamarBlue, mean ± SD"}, "[4]": {"tested_on": "L. amazonensis", "assay": "Plasma membrane permeability (SYTOX Green)", "format": "cell-based, Leishmania amazonensis", "settings": "IC90, 24 h", "method": "(§1) The SYTOX® Green assay was performed to detect the membrane permeability alterations in parasites. […] SYTOX® Green was added at a final concentration of 1 μM (Molecular Probes)."}, "[5]": {"tested_on": "T. cruzi", "assay": "Plasma membrane permeability (SYTOX Green)", "format": "cell-based, Trypanosoma cruzi", "settings": "IC90, 24 h", "method": "as §1"}, "[6]": {"tested_on": "T. cruzi epimastigotes", "assay": "Mitochondrial membrane potential (JC-1)", "format": "cell-based, Trypanosoma cruzi", "settings": "IC90, 24 h", "method": "(§2) The decrease in the mitochondrial membrane potential was detected using a JC-1 Mitochondrial Membrane, Potential Assay Kit, Cayman Chemical. […] The pellet was resuspended in JC-1 buffer. After that, 100 µL of each treated culture was added to a black 96-well plate (PerkinElmer) and 10 µL of JC-1 was added, and the plate was incubated for half an hour at 26 °C. Green and red fluorescence intensity was measured using an Enspire microplate reader (PerkinElmer, Massachusetts, USA) for 30 min. In addition, the depolarization of the mitochondrial membrane potential was confirmed by microscopic observation using EVOS FL Cell Imaging System AMF4300, Life Technologies, USA."}, "[7]": {"tested_on": "promastigotes of L. donovani (MHOM/IN/90/GE1F8R)", "assay": "Leishmanicidal capacity assay, promastigotes (AlamarBlue)", "format": "cell-based, Leishmania donovani", "settings": "72 h, mean ± SD; for IC50: Leishmania donovani"}, "[8]": {"tested_on": "L. donovani", "assay": "Plasma membrane permeability (SYTOX Green)", "format": "cell-based, Leishmania donovani", "settings": "IC90, 24 h", "method": "as §1"}, "[9]": {"tested_on": "promastigotes of L. donovani", "assay": "Microscopic morphology of treated promastigotes", "format": "cell-based, Leishmania donovani", "settings": "10 µM; flagellar pocket increased, invagination of plasma membrane"}, "[10]": {"tested_on": "L. donovani promastigotes", "assay": "Mitochondrial membrane potential (JC-1)", "format": "cell-based, Leishmania donovani", "settings": "IC90, 24 h", "method": "as §2"}, "[11]": {"tested_on": "promastigotes of L. amazonensis (MHOM/BR/77/LTB0016)", "assay": "Leishmanicidal capacity assay, promastigotes (AlamarBlue)", "format": "cell-based, Leishmania amazonensis", "settings": "for IC50 / L. amazonensis IC50: promastigotes, 72 h, mean ± SD"}, "[12]": {"tested_on": "L. amazonensis amastigotes", "assay": "Anti-amastigote activity, intra-macrophage stage in J774A.1", "settings": "for Selectivity Index (CC50/IC50): CC50 J774A.1 / IC50 L. amazonensis amastigotes; for IC50: Leishmania amazonensis, J774.A1, read-out: L. Amazonensis Amastigotes IC50"}, "[13]": {"tested_on": "L. amazonensis promastigotes", "assay": "Mitochondrial membrane potential (JC-1)", "format": "cell-based, Leishmania amazonensis", "settings": "IC90 (8.36 µM), 24 h", "method": "as §2"}, "[14]": {"tested_on": "protein kinase C (PKC)", "settings": "cited from earlier work"}, "[15]": {"target": "protein kinase A (PKA)", "settings": "cited from earlier work"}, "[16]": {"target": "phosphorylase kinase", "settings": "cited from earlier work"}, "[17]": {"tested_on": "macrophage J774A.1 cell line"}, "[18]": {"assay": "in vitro", "settings": "mouse"}}, "note": "Read-outs that look alike come from different tables or passages of the source."}
{"smiles": "O=C(Cn1ccnc1[N+](=O)[O-])NCc1ccccc1", "note": "[Benznidazole]", "values": [{"measurement": "CC50 at 24 h", "setting": "[1]; J774A.1 macrophage cell line", "value": "400 ± 4", "unit": "µM"}, {"measurement": "IC50", "setting": "[2]", "value": "6.94 ± 1.94", "unit": "µM"}]}
{"smiles": "CN[C@@H]1C[C@H]2O[C@@](C)([C@@H]1OC)n1c3ccccc3c3c4c(c5c6ccccc6n2c5c31)C(=O)NC4", "note": "[Compound 1, staurosporine]", "values": [{"measurement": "CC50", "setting": "[3]; read-out: Macrophage J774A.1 CC50", "value": "8.74 ± 0.72", "unit": "µM"}, {"measurement": "IC50", "setting": "[2]", "value": "3.63 ± 0.77", "unit": "µM"}]}
{"smiles": "CN[C@@H]1C[C@H]2O[C@@](C)([C@@H]1OC)n1c3ccccc3c3c4c(c5c6ccccc6n2c5c31)C(=O)NC4=O", "note": "[Compound 2, 7-oxostaurosporine]", "values": [{"measurement": "cytoplasmic membrane permeability", "setting": "[4]", "value": "does not seem to be permeable"}, {"measurement": "cytoplasmic membrane permeability", "setting": "[5]", "value": "remarkable membrane alteration"}, {"measurement": "effect on mitochondrial membrane potential (ΔΨm)", "setting": "[6]", "value": "did not observe any change"}, {"measurement": "IC50", "setting": "[7]", "value": "0.56 ± 0.06", "unit": "µM"}, {"measurement": "cytoplasmic membrane permeability", "setting": "[8]", "value": "remarkable membrane alteration"}, {"measurement": "morphological changes of parasites", "setting": "[9]", "value": "morphological changes"}, {"measurement": "effect on mitochondrial membrane potential (ΔΨm)", "setting": "[10]", "value": "did not observe any change"}, {"measurement": "IC50", "setting": "[11]; Leishmania amazonensis", "value": "3.58 ± 1.1", "unit": "µM"}, {"measurement": "IC90", "setting": "[11]; Leishmania amazonensis, read-out: IC90 concentration, L. amazonensis promastigotes", "value": 8.36, "unit": "µM"}, {"measurement": "CC50 at 24 h", "setting": "[1]", "value": "5.2 ± 1.75", "unit": "µM"}, {"measurement": "Selectivity Index (CC50/IC50)", "setting": "[12]", "value": 52}, {"measurement": "IC50", "setting": "[12]", "value": 100, "unit": "nM"}, {"measurement": "IC50", "setting": "[2]", "value": "1.58 ± 0.52", "unit": "µM"}, {"measurement": "effect on mitochondrial membrane potential (ΔΨm)", "setting": "[13]", "value": "intense effect"}]}
{"smiles": "CO[C@@H]1C(=O)C[C@H]2O[C@]1(C)n1c3ccccc3c3c4c(c5c6ccccc6n2c5c31)C(=O)NC4", "note": "[Compound 3, 4′-demethylamino-4′-oxostaurosporine]", "values": [{"measurement": "IC50", "setting": "[7]", "value": "> 40", "unit": "µM"}, {"measurement": "IC50", "setting": "[11]; Leishmania amazonensis", "value": "17.1 ± 4.78", "unit": "µM"}, {"measurement": "CC50 at 24 h", "setting": "[1]; J774A.1 macrophage cell line", "value": "> 40", "unit": "µM"}, {"measurement": "Macrophage J774A.1 CC50", "setting": "[3]", "value": "low toxicity"}, {"measurement": "IC50", "setting": "[12]", "value": "2030 ± 270", "unit": "nM"}, {"measurement": "IC50", "setting": "[2]", "value": "17.1 ± 1.64", "unit": "µM"}]}
{"smiles": "COC1=C(C)O[C@@H]2C[C@@]1(OC)n1c3ccccc3c3c4c(c5c6ccccc6n2c5c31)C(=O)NC4", "note": "[Compound 4, streptocarbazole B]", "values": [{"measurement": "IC50", "setting": "[7]", "value": "> 40", "unit": "µM"}, {"measurement": "IC50", "setting": "[11]; Leishmania amazonensis", "value": "10.4 ± 0.21", "unit": "µM"}, {"measurement": "CC50 at 24 h", "setting": "[1]; J774A.1 macrophage cell line", "value": "> 40", "unit": "µM"}, {"measurement": "Macrophage J774A.1 CC50", "setting": "[3]", "value": "low toxicity"}, {"measurement": "IC50", "setting": "[12]", "value": "2470 ± 90", "unit": "nM"}, {"measurement": "IC50", "setting": "[2]", "value": "12.5 ± 2.06", "unit": "µM"}]}
{"smiles": "CO[C@H]1[C@H](O)[C@@H](O)[C@H](n2c3c(Cl)cccc3c3c4c(c5c6cccc(Cl)c6[nH]c5c32)C(=O)NC4=O)O[C@@H]1CO", "note": "[Compound 5, rebeccamycin]", "values": [{"measurement": "L. donovani IC50", "setting": "[7]", "value": "completely inactive"}, {"measurement": "IC50", "setting": "[7]", "value": "> 40", "unit": "µM"}, {"measurement": "IC50", "setting": "[11]; Leishmania amazonensis", "value": "> 40", "unit": "µM"}, {"measurement": "L. amazonensis IC50", "setting": "[11]", "value": "completely inactive"}, {"measurement": "CC50 at 24 h", "setting": "[1]; J774A.1 macrophage cell line", "value": "1.42 ± 0.19", "unit": "µM"}, {"measurement": "inhibitory effect on PKC", "setting": "[14]", "value": "no inhibitory effect"}, {"measurement": "IC50", "setting": "[2]", "value": "> 40", "unit": "µM"}, {"measurement": "T. cruzi IC50", "setting": "[2]", "value": "completely inactive"}]}
{"smiles": "COC(=O)[C@@]1(O)C[C@H]2O[C@]1(C)n1c3ccccc3c3c4c(c5c6ccccc6n2c5c31)C(=O)NC4", "note": "[Compound 6, K252a]", "values": [{"measurement": "IC50", "setting": "[7]", "value": "8.09 ± 1.12", "unit": "µM"}, {"measurement": "IC50", "setting": "[11]; Leishmania amazonensis", "value": "5.9 ± 0.96", "unit": "µM"}, {"measurement": "IC50", "setting": "[15]", "value": 140, "unit": "nM"}, {"measurement": "CC50 at 24 h", "setting": "[1]", "value": "1.07 ± 0.21", "unit": "µM"}, {"measurement": "IC50", "setting": "[16]", "value": 1.7, "unit": "nM"}, {"measurement": "IC50", "setting": "[2]", "value": "4 ± 0.24", "unit": "µM"}]}
{"smiles": "C[C@]12O[C@H](C[C@]1(O)C(=O)O)n1c3ccccc3c3c4c(c5c6ccccc6n2c5c31)CNC4=O", "note": "[Compound 7, K252b]", "values": [{"measurement": "Macrophage J774A.1 CC50", "setting": "[17]", "value": "low toxicity"}, {"measurement": "IC50", "setting": "[7]", "value": "4.45 ± 0.71", "unit": "µM"}, {"measurement": "CC50 at 24 h", "setting": "[18]", "value": "> 40", "unit": "µM"}, {"measurement": "IC50", "setting": "[11]; Leishmania amazonensis", "value": "20.6 ± 4.5", "unit": "µM"}, {"measurement": "IC50", "setting": "[2]", "value": "7.41 ± 0.93", "unit": "µM"}]}
{"smiles": "O=C1NCc2c1c1c3ccccc3[nH]c1c1[nH]c3ccccc3c21", "note": "[Compound 8, K252c]", "values": [{"measurement": "L. donovani IC50", "setting": "[7]", "value": "completely inactive"}, {"measurement": "IC50", "setting": "[7]", "value": "> 40", "unit": "µM"}, {"measurement": "IC50", "setting": "[11]; Leishmania amazonensis", "value": "> 40", "unit": "µM"}, {"measurement": "L. amazonensis IC50", "setting": "[11]", "value": "completely inactive"}, {"measurement": "CC50 at 24 h", "setting": "[1]; J774A.1 macrophage cell line", "value": "35.4 ± 2.47", "unit": "µM"}, {"measurement": "Macrophage J774A.1 CC50", "setting": "[3]", "value": "low toxicity"}, {"measurement": "IC50", "setting": "[2]", "value": "> 40", "unit": "µM"}, {"measurement": "T. cruzi IC50", "setting": "[2]", "value": "completely inactive"}]}
{"smiles": "O=C1NC(=O)c2c1c1c3ccccc3[nH]c1c1[nH]c3ccccc3c21", "note": "[Compound 9, arcyriaflavin A]", "values": [{"measurement": "Macrophage J774A.1 CC50", "setting": "[17]", "value": "low toxicity"}, {"measurement": "L. donovani IC50", "setting": "[7]", "value": "completely inactive"}, {"measurement": "IC50", "setting": "[7]", "value": "> 40", "unit": "µM"}, {"measurement": "CC50 at 24 h", "setting": "[18]", "value": "> 40", "unit": "µM"}, {"measurement": "IC50", "setting": "[11]; Leishmania amazonensis", "value": "> 40", "unit": "µM"}, {"measurement": "L. amazonensis IC50", "setting": "[11]", "value": "completely inactive"}, {"measurement": "IC50", "setting": "[2]", "value": "> 40", "unit": "µM"}, {"measurement": "T. cruzi IC50", "setting": "[2]", "value": "completely inactive"}]}
{"smiles": "CCCCCCCCCCCCCCCCOP(=O)([O-])OCC[N+](C)(C)C", "note": "[Miltefosine]", "values": [{"measurement": "IC50", "setting": "[7]", "value": "3.32 ± 0.27", "unit": "µM"}, {"measurement": "CC50 at 24 h", "setting": "[1]; J774A.1 macrophage cell line", "value": "72.2 ± 3.06", "unit": "µM"}, {"measurement": "Selectivity Index (CC50/IC50)", "setting": "[12]", "value": 23}]}
